Experimental data as given in ChEMBL document CHEMBL1201862, “PubChem BioAssay data set” (2004).
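96-well plates; 48 h exposure; 5 concentrations. Endpoints by linear interpolation between flanking doses. Not reached: highest tested concentration assigned. Here, GI50 denotes the concentration required for 50% inhibition of growth.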 The source made the active and inactive calls. Rule as the data show it: active = GI50 up to about 1.1 µM and inactive = higher.

Assays:
Experiment in all cases: NCI-60 cell line screen, 48 h
HOP-18 = test system: HOP-18
LXFL 529 = test system: LXFL 529
OVCAR-5 = test system: OVCAR-5
NCI-H460 = test system: NCI-H460
OVCAR-3 = test system: OVCAR-3
CCRF-CEM = test system: CCRF-CEM
K562 = test system: K562
HCT-116 = test system: HCT-116
NCI-H522 = test system: NCI-H522
KM12 = test system: KM12
SNB-75 = test system: SNB-75
HCC 2998 = test system: HCC 2998
LOX IMVI = test system: LOX IMVI
DMS-273 = test system: DMS-273
M14 = test system: M14
TK-10 = test system: TK-10
UACC-257 = test system: UACC-257
SK-MEL-5 = test system: SK-MEL-5
DMS-114 = test system: DMS-114
NCI-H226 = test system: NCI-H226
HOP-92 = test system: HOP-92
OVCAR-4 = test system: OVCAR-4
OVCAR-8 = test system: OVCAR-8
RXF 393 = test system: RXF 393
SW-620 = test system: SW-620
SK-MEL-2 = test system: SK-MEL-2
DLD-1 = test system: DLD-1
SN12C = test system: SN12C
COLO 205 = test system: COLO 205
SK-OV-3 = test system: SK-OV-3
U-251 = test system: U-251
SF-295 = test system: SF-295
XF498 = test system: XF498
A498 = test system: A498
SR = test system: SR
CAKI-1 = test system: CAKI-1
RPMI-8226 = test system: RPMI-8226
SF-539 = test system: SF-539
SK-MEL-28 = test system: SK-MEL-28
SNB-19 = test system: SNB-19
HL-60 = test system: HL-60
Malme-3M = test system: Malme-3M
SNB-78 = test system: SNB-78
HOP-62 = test system: HOP-62
SF-268 = test system: SF-268
EKVX = test system: EKVX
MOLT-4 = test system: MOLT-4
A549 = test system: A549
ACHN = test system: ACHN
IGROV-1 = test system: IGROV-1
786-0 = test system: 786-0
KM-20L2 = test system: KM-20L2
HT-29 = test system: HT-29
UO-31 = test system: UO-31
UACC-62 = test system: UACC-62
HCT-15 = test system: HCT-15
NCI-H23 = test system: NCI-H23
M19-MEL = test system: M19-MEL

In the case of `CC(N)C(C)c1ccccc1` (configuration not stated), the GI50 (HOP-18) is reported as > 100 µM (inactive), the GI50 (LXFL 529) is reported as > 100 µM (inactive) and the GI50 (OVCAR-5) is reported as > 100 µM (inactive). For the same compound, the GI50 (NCI-H460) was > 100 µM (inactive), the GI50 (OVCAR-3) was > 100 µM (inactive) and the GI50 (CCRF-CEM) was > 100 µM (inactive). The GI50 (K562) was > 100 µM (inactive), the GI50 (HCT-116) was > 100 µM (inactive) and the GI50 (NCI-H522) was > 100 µM (inactive). The GI50 (KM12) was > 100 µM (inactive), the GI50 (SNB-75) was > 100 µM (inactive) and the GI50 (HCC 2998) was > 100 µM (inactive). The GI50 (LOX IMVI) was > 100 µM (inactive), the GI50 (DMS-273) was > 100 µM (inactive) and the GI50 (M14) was > 100 µM (inactive). The GI50 (TK-10) was > 100 µM (inactive), the GI50 (UACC-257) was > 100 µM (inactive) and the GI50 (SK-MEL-5) was > 100 µM (inactive). The GI50 (DMS-114) was > 100 µM (inactive), the GI50 (NCI-H226) was > 100 µM (inactive) and the GI50 (HOP-92) was > 100 µM (inactive). For the same compound, the GI50 (OVCAR-4) was > 100 µM (inactive), the GI50 (OVCAR-8) was > 100 µM (inactive) and the GI50 (RXF 393) was > 100 µM (inactive). The GI50 (SW-620) was > 100 µM (inactive), the GI50 (SK-MEL-2) was > 100 µM (inactive) and the GI50 (DLD-1) was > 100 µM (inactive). For the same compound, the GI50 (SN12C) was > 100 µM (inactive), the GI50 (COLO 205) was > 100 µM (inactive) and the GI50 (SK-OV-3) was > 100 µM (inactive). The GI50 (U-251) was > 100 µM (inactive), the GI50 (SF-295) was > 100 µM (inactive) and the GI50 (XF498) was > 100 µM (inactive). The GI50 (A498) was > 100 µM (inactive), the GI50 (SR) was > 100 µM (inactive) and the GI50 (CAKI-1) was > 100 µM (inactive). For the same compound, the GI50 (RPMI-8226) was > 100 µM (inactive), the GI50 (SF-539) was > 100 µM (inactive) and the GI50 (SK-MEL-28) was > 100 µM (inactive). The GI50 (SNB-19) was > 100 µM (inactive), the GI50 (HL-60) was > 100 µM (inactive) and the GI50 (Malme-3M) was > 100 µM (inactive). For the same compound, the GI50 (SNB-78) was > 100 µM (inactive), the GI50 (HOP-62) was > 100 µM (inactive) and the GI50 (SF-268) was > 100 µM (inactive). For the same compound, the GI50 (EKVX) was > 100 µM (inactive), the GI50 (MOLT-4) was > 100 µM (inactive) and the GI50 (A549) was > 100 µM (inactive). For the same compound, the GI50 (ACHN) was > 100 µM (inactive), the GI50 (IGROV-1) was > 100 µM (inactive) and the GI50 (786-0) was > 100 µM (inactive). The GI50 (KM-20L2) was > 100 µM (inactive), the GI50 (HT-29) was > 100 µM (inactive) and the GI50 (UO-31) was > 100 µM (inactive). For the same compound, the GI50 (UACC-62) was > 100 µM (inactive), the GI50 (HCT-15) was over 100 µM and the GI50 (NCI-H23) was > 100 µM (inactive).
`CC(=O)OC(CCC1(C)OC1COc1ccc(CCNC(=O)c2ccccc2)cc1)C(C)(C)OC(C)=O` (configuration not stated) was tested, and the GI50 (HOP-18) was > 100 µM (inactive), the GI50 (LXFL 529) was 10.3 µM (inactive) and the GI50 (OVCAR-5) was > 100 µM (inactive). For the same compound, the GI50 (NCI-H460) was 13.1 µM (inactive), the GI50 (OVCAR-3) was 10.3 µM (inactive) and the GI50 (CCRF-CEM) was 7.18 µM (inactive). The GI50 (K562) was 0.752 µM (active), the GI50 (HCT-116) was 0.794 µM (active) and the GI50 (NCI-H522) was 22.9 µM (inactive). The GI50 (KM12) was 15.6 µM (inactive), the GI50 (SNB-75) was 32.6 µM (inactive) and the GI50 (LOX IMVI) was 2.18 µM (inactive). For the same compound, the GI50 (DMS-273) was 11 µM (inactive), the GI50 (M14) was 15.1 µM (inactive) and the GI50 (TK-10) was 49.3 µM (inactive). The GI50 (UACC-257) was 2.13 µM (inactive), the GI50 (SK-MEL-5) was 1.1 µM (active) and the GI50 (DMS-114) was 0.325 µM (active). For the same compound, the GI50 (NCI-H226) was > 100 µM (inactive), the GI50 (HOP-92) was 74.6 µM (inactive) and the GI50 (OVCAR-4) was 19.7 µM (inactive). The GI50 (OVCAR-8) was 15.7 µM (inactive), the GI50 (RXF 393) was 16.2 µM (inactive) and the GI50 (SW-620) was > 100 µM (inactive). For the same compound, the GI50 (SK-MEL-2) was 17.3 µM (inactive), the GI50 (DLD-1) was 45 µM (inactive) and the GI50 (SN12C) was > 100 µM (inactive). For the same compound, the GI50 (COLO 205) was 19.5 µM (inactive), the GI50 (SK-OV-3) was > 100 µM (inactive) and the GI50 (U-251) was 37.3 µM (inactive). For the same compound, the GI50 (SF-295) was 11.4 µM (inactive), the GI50 (SR) was 0.493 µM (active) and the GI50 (CAKI-1) was 19 µM (inactive). For the same compound, the GI50 (RPMI-8226) was 18.6 µM (inactive), the GI50 (SF-539) was > 100 µM (inactive) and the GI50 (SK-MEL-28) was 22 µM (inactive). For the same compound, the GI50 (HL-60) was 25.7 µM (inactive), the GI50 (Malme-3M) was 15.3 µM (inactive) and the GI50 (SNB-78) was 36.2 µM (inactive). For the same compound, the GI50 (HOP-62) was 15.5 µM (inactive), the GI50 (SF-268) was 74.8 µM (inactive) and the GI50 (MOLT-4) was 4.19 µM (inactive). The GI50 (M19-MEL) was 18.4 µM (inactive), the GI50 (A549) was 13.1 µM (inactive) and the GI50 (ACHN) was 5 µM (inactive). For the same compound, the GI50 (IGROV-1) was 39.5 µM (inactive), the GI50 (786-0) was > 100 µM (inactive) and the GI50 (KM-20L2) was 30.1 µM (inactive). The GI50 (HT-29) was 17.4 µM (inactive), the GI50 (UO-31) was 29.4 µM (inactive) and the GI50 (UACC-62) was 14.3 µM (inactive). For the same compound, the GI50 (HCT-15) was 13.9 µM and the GI50 (NCI-H23) was 0.302 µM (active).
`CC(Oc1ccc(OCC2CCCCC2)cc1)C(=O)N(CCO)CCO` (configuration not stated) was tested, and the GI50 (HOP-18) was > 100 µM (inactive), the GI50 (LXFL 529) was > 100 µM (inactive) and the GI50 (NCI-H460) was > 100 µM (inactive). For the same compound, the GI50 (OVCAR-3) was > 100 µM (inactive), the GI50 (CCRF-CEM) was > 100 µM (inactive) and the GI50 (K562) was > 100 µM (inactive). The GI50 (HCT-116) was > 100 µM (inactive), the GI50 (NCI-H522) was > 100 µM (inactive) and the GI50 (KM12) was > 100 µM (inactive). The GI50 (SNB-75) was 92.9 µM (inactive), the GI50 (HCC 2998) was 32.9 µM (inactive) and the GI50 (LOX IMVI) was > 100 µM (inactive). The GI50 (DMS-273) was > 100 µM (inactive), the GI50 (M14) was > 100 µM (inactive) and the GI50 (TK-10) was > 100 µM (inactive). The GI50 (UACC-257) was > 100 µM (inactive), the GI50 (SK-MEL-5) was > 100 µM (inactive) and the GI50 (DMS-114) was > 100 µM (inactive). The GI50 (NCI-H226) was > 100 µM (inactive), the GI50 (OVCAR-4) was > 100 µM (inactive) and the GI50 (OVCAR-8) was > 100 µM (inactive). The GI50 (RXF 393) was > 100 µM (inactive), the GI50 (SK-MEL-2) was > 100 µM (inactive) and the GI50 (SN12C) was > 100 µM (inactive). For the same compound, the GI50 (SK-OV-3) was > 100 µM (inactive), the GI50 (U-251) was > 100 µM (inactive) and the GI50 (SF-295) was > 100 µM (inactive). The GI50 (XF498) was > 100 µM (inactive), the GI50 (A498) was > 100 µM (inactive) and the GI50 (SF-539) was 23.6 µM (inactive). For the same compound, the GI50 (SK-MEL-28) was > 100 µM (inactive), the GI50 (SNB-19) was > 100 µM (inactive) and the GI50 (HL-60) was > 100 µM (inactive). The GI50 (Malme-3M) was > 100 µM (inactive), the GI50 (SNB-78) was > 100 µM (inactive) and the GI50 (SF-268) was > 100 µM (inactive). The GI50 (MOLT-4) was > 100 µM (inactive), the GI50 (M19-MEL) was > 100 µM (inactive) and the GI50 (A549) was > 100 µM (inactive). For the same compound, the GI50 (ACHN) was > 100 µM (inactive), the GI50 (IGROV-1) was > 100 µM (inactive) and the GI50 (786-0) was > 100 µM (inactive). For the same compound, the GI50 (HT-29) was > 100 µM (inactive), the GI50 (UO-31) was > 100 µM (inactive) and the GI50 (UACC-62) was > 100 µM (inactive). For the same compound, the GI50 (HCT-15) was over 100 µM and the GI50 (NCI-H23) was > 100 µM (inactive).
